Measurements published in publication PMC4661537 (2015).

What was measured:
[1] = system: Spi-tRNA (RNA, aptamer) GCCCGGAUAGCUCAGUCGGUAGAGCAGCGGCCGGACGCAACUGAAUGAAAUGGUGAAGGACGGGUCCAGGUGUGGCUGCUUCGGCAGUGCAGCUUGUUGAGUAGAGUGUGAGCUCCGUAACUAGUCGCGUCCGGCCGCGGGUCCAGGGUUCAAGUCCCUGUUCGGGCGCCA; assay: fluorescence activation; details: K+ 125 mM, Mg2+ 5 mM (folding buffer); fluorescence slightly higher than single Spinach
[2] = system: Spi (single Spinach aptamer, 24-2) (RNA, aptamer) GACGCAACUGAAUGAAAUGGUGAAGGACGGGUCCAGGUGUGGCUGCUUCGGCAGUGCAGCUUGUUGAGUAGAGUGUGAGCUCCGUAACUAGUCGCGUC; assay: fluorescence association kinetics (koff/kon); details: K+ 125 mM, Mg2+ 5 mM (folding buffer); 40 mM K-HEPES pH 7.5; 40 nM aptamer, DFHBI 200-600 nM; mean over concentrations; biphasic; per site
[3] = system: Spi-8R (RNA, aptamer) UAGACGGCAUGGGGAGACGCGACCGAAAUGGUGAAGGACGGGUCCAGUGCUUCGGCACUGUUGAGUAGAGUGUGAGCUCCGUAACUGGUCGCGUCACGUAAGAUGCUCCGGUUAGGGAGACGCGACCGAAAUGGUGAAGGACGGGUCCAGUGCUUCGGCACUGUUGAGUAGAGUGUGAGCUCCGUAACUGGUCGCGUCACUGAUGUACCGUUGAGCAGGGAGACGCGACCGAAAUGGUGAAGGACGGGUCCAGUGCUUCGGCACUGUUGAGUAGAGUGUGAGCUCCGUAACUGGUCGCGUCACUCGCUAGAGCAUGGUUUGGGAGACGCGACCGAAAUGGUGAAGGACGGGUCCAGUGCUUCGGCACUGUUGAGUAGAGUGUGAGCUCCGUAACUGGUCGCGUCACUGGGGCACGCCGUCUGGGGGAGACGCGACCGAAAUGGUGAAGGACGGGUCCAGUGCUUCGGCACUGUUGAGUAGAGUGUGAGCUCCGUAACUGGUCGCGUCACUUACUGCGACCGCAAUAGGGAGACGCGACCGAAAUGGUGAAGGACGGGUCCAGUGCUUCGGCACUGUUGAGUAGAGUGUGAGCUCCGUAACUGGUCGCGUCACGCGCGCAACCGGGUAGAGGGAGACGCGACCGAAAUGGUGAAGGACGGGUCCAGUGCUUCGGCACUGUUGAGUAGAGUGUGAGCUCCGUAACUGGUCGCGUCACGUAACUCACGGCGCUAUGGGAGACGCGACCGAAAUGGUGAAGGACGGGUCCAGUGCUUCGGCACUGUUGAGUAGAGUGUGAGCUCCGUAACUGGUCGCGUC; assay: fluorescence association kinetics (koff/kon); details: K+ 125 mM, Mg2+ 5 mM (folding buffer); 40 mM K-HEPES pH 7.5; 10 nM RNA (34.8 nM folded aptamer), DFHBI 200-600 nM; per aptamer; biphasic; per site

binding [1]: yes
KD [2]: 303 ± 22 nM
KD [3]: 246 ± 67 nM
SMILES: CC1=N/C(=C\c2cc(F)c(O)c(F)c2)C(=O)N1C
